Measured values taken from ChEMBL document CHEMBL4251601 (Eur J Med Chem, 2018).

Assays:
[1] = biological target: RAC-beta serine/threonine-protein kinase (Homo sapiens) (UniProt P31751); assay: Inhibition of recombinant full length human His-tagged AKT2 expressed in baculovirus expression system at 0.1 uM by TR-FRET assay relative to control
[2] = biological target: Ephrin type-B receptor 2 (Homo sapiens) (UniProt P29323); assay: Inhibition of recombinant human GST-tagged EPHB2 cytoplasmic domain (616 to 884 residues) expressed in baculovirus expression system at 0.1 uM by Z'-Lyte assay relative to control
[3] = AUC (0 to infinity) in Sprague-Dawley rat at 2 mg/kg, iv administered as single dose by LC-MS/MS analysis; assay type: ADME, organism-based; design: dose 2 mg/kg, route intravenous, time infinity; settings: Sprague-Dawley, in vivo
[4] = biological target: Cytoplasmic tyrosine-protein kinase BMX (Homo sapiens) (UniProt P51813); assay: Inhibition of recombinant full length human His-tagged BMX expressed in baculovirus expression system at 1 uM by TR-FRET assay relative to control
Cytoplasmic tyrosine-protein kinase BMX (Homo sapiens), sequence (P51813 whole entry): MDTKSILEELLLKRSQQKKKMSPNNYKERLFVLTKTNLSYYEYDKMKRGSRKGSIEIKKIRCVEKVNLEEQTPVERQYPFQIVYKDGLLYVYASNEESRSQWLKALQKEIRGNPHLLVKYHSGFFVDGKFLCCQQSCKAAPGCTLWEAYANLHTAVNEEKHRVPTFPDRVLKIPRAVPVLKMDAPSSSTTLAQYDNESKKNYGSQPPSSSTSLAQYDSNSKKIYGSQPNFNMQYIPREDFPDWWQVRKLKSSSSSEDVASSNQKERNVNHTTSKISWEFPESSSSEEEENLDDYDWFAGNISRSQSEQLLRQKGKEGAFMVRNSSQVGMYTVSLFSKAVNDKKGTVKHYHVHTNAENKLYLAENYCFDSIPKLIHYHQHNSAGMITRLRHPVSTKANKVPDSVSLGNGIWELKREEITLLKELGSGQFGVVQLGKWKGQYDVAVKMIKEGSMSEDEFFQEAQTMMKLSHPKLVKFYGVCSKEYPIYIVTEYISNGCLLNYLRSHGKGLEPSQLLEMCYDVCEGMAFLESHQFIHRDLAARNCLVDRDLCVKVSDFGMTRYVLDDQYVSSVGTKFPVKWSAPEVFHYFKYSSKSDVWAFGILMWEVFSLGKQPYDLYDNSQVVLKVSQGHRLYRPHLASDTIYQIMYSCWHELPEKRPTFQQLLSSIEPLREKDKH

[5] = AUC (0 to 24 hrs) in Sprague-Dawley rat at 2 mg/kg, iv administered as single dose by LC-MS/MS analysis; assay type: ADME, organism-based; design: dose 2 mg/kg, time < 24 hr, route intravenous; settings: in vivo
[6] = biological target: Misshapen-like kinase 1 (Homo sapiens) (UniProt Q8N4C8); assay: Inhibition of recombinant human GST-tagged MINK (1 to 320 residues) expressed in baculovirus expression system at 0.1 uM by Z'-Lyte assay relative to control
[7] = biological target: Mitogen-activated protein kinase kinase kinase 9 (Homo sapiens) (UniProt P80192); assay: Inhibition of recombinant human GST-tagged MLK1 expressed in baculovirus expression system at 1 uM by Z'-Lyte assay relative to control
Mitogen-activated protein kinase kinase kinase 9 (Homo sapiens), sequence (P80192 whole entry, looked up): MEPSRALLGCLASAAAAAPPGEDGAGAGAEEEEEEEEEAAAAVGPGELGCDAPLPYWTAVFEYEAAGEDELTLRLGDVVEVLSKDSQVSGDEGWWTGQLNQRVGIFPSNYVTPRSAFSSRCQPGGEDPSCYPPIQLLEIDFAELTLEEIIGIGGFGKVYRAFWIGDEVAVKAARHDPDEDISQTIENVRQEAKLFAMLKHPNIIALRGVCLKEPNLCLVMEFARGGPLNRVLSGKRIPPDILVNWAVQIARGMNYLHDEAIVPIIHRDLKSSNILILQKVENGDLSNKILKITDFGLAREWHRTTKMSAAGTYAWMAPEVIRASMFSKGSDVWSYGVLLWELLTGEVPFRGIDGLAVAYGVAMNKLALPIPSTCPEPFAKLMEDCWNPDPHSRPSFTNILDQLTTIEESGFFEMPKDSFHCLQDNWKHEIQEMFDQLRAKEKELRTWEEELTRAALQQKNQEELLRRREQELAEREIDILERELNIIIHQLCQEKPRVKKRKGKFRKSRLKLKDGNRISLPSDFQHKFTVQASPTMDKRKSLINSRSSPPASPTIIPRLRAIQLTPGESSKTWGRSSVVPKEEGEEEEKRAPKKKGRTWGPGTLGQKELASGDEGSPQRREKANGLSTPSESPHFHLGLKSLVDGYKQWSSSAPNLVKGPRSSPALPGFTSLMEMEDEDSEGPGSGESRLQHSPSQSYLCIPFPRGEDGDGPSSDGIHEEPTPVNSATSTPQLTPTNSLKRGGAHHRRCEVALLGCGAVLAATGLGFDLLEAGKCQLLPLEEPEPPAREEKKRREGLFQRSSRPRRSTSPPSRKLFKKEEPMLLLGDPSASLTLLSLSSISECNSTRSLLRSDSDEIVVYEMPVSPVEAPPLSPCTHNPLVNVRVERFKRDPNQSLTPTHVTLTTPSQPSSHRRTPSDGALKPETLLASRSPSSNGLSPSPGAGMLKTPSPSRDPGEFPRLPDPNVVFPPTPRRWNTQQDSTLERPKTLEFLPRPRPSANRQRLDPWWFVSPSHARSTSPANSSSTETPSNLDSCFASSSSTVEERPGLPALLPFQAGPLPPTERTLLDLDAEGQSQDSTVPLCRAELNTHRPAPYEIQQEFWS

[8] = biological target: Mitogen-activated protein kinase 8 (Homo sapiens) (UniProt P45983); assay: Inhibition of recombinant human full length His-tagged JNK1 expressed in baculovirus expression system at 1 uM by Z'-Lyte assay relative to control
Mitogen-activated protein kinase 8 (Homo sapiens), sequence (P45983 whole entry, the tested form may be a part): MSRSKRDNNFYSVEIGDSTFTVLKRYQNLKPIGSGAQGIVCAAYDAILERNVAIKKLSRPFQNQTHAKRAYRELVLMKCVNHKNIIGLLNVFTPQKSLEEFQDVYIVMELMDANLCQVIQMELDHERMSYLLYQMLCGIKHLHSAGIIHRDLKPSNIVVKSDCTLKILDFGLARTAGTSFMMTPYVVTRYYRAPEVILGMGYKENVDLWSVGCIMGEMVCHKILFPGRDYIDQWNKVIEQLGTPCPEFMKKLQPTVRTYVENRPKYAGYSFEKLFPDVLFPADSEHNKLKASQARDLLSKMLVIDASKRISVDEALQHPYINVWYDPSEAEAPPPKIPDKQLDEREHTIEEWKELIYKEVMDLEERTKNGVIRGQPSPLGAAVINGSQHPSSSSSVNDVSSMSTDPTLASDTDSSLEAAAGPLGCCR

[9] = biological target: Serine/threonine-protein kinase PAK 4 (Homo sapiens) (UniProt O96013); assay: Inhibition of recombinant human GST-tagged PAK4 expressed in baculovirus expression system at 0.1 uM by Z'-Lyte assay relative to control
[10] = biological target: Receptor tyrosine-protein kinase erbB-2 (Homo sapiens) (UniProt P04626); assay: Inhibition of recombinant human His-tagged ERBB2 cytoplasmic domain expressed in baculovirus expression system at 0.1 uM by Z'-Lyte assay relative to control
[11] = biological target: Hepatocyte growth factor receptor (Homo sapiens) (UniProt P08581); assay: Inhibition of recombinant human His-tagged c-Met cytoplasmic domain expressed in baculovirus expression system at 0.1 uM by Z'-Lyte assay relative to control
[12] = biological target: Glycogen synthase kinase-3 beta (Homo sapiens) (UniProt P49841); assay: Inhibition of recombinant human full length His-tagged GSK3beta expressed in baculovirus expression system at 0.1 uM by Z'-Lyte assay relative to control
[13] = biological target: Tyrosine-protein kinase Tec (Homo sapiens) (UniProt P42680); assay: Inhibition of recombinant human full length His-tagged TEC expressed in baculovirus expression system at 0.1 uM by TR-FRET assay relative to control
[14] = biological target: Serine/threonine-protein kinase MARK1 (Homo sapiens) (UniProt Q9P0L2); assay: Inhibition of recombinant human full length GST-tagged MARK1 expressed in baculovirus expression system at 1 uM by Z'-Lyte assay relative to control
[15] = Half life in Sprague-Dawley rat at 2 mg/kg, iv administered as single dose by LC-MS/MS analysis; assay type: ADME, organism-based; settings: in vivo
[16] = biological target: G protein-coupled receptor kinase 6 (Homo sapiens) (UniProt P43250); assay: Inhibition of recombinant human full length GST-tagged GRK6 expressed in baculovirus expression system at 0.1 uM by Z'-Lyte assay relative to control
[17] = biological target: Tyrosine-protein kinase receptor TYRO3 (Homo sapiens) (UniProt Q06418); assay: Inhibition of recombinant human GST-tagged TYRO3 cytoplasmic domain (451 to 890 residues) expressed in baculovirus expression system at 0.1 uM by Z'-Lyte assay relative to control
Tyrosine-protein kinase receptor TYRO3 (Homo sapiens), sequence (Q06418 whole entry, the tested form may be a part): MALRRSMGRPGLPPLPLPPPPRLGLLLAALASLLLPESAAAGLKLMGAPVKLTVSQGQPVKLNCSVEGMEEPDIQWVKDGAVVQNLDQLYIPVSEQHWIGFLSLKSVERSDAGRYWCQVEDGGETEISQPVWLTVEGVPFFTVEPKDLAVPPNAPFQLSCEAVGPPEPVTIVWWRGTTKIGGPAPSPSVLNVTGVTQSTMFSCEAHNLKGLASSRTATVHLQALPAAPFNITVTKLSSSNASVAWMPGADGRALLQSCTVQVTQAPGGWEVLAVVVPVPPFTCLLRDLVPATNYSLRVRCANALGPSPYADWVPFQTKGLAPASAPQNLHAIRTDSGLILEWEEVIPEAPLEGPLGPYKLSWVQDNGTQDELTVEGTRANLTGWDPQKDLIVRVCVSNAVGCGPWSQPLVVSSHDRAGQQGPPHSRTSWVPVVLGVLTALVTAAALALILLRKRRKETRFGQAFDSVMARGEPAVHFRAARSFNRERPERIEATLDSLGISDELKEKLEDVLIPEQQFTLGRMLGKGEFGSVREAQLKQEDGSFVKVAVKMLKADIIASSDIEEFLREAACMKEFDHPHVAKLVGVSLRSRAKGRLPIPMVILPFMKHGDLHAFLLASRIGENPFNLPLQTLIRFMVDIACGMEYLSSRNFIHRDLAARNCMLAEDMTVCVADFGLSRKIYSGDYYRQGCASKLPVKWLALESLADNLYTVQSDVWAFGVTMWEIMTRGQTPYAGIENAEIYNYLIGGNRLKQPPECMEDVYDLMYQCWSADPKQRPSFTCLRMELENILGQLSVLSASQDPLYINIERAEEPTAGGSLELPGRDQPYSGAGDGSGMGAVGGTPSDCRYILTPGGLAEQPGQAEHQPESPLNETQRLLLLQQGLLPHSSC

[18] = Unbound Cmax in CD-1 mouse plasma at 10 mg/kg, po administered as single dose by LC-MS/MS analysis; assay type: ADME, organism-based; settings: in vivo
[19] = biological target: Mitogen-activated protein kinase kinase kinase 14 (Homo sapiens, UniProt Q99558); assay: Inhibition of recombinant human GST-tagged NIK expressed in baculovirus expression system at 1 uM by Z'-Lyte assay relative to control
Mitogen-activated protein kinase kinase kinase 14, sequence (Q99558 whole entry, looked up): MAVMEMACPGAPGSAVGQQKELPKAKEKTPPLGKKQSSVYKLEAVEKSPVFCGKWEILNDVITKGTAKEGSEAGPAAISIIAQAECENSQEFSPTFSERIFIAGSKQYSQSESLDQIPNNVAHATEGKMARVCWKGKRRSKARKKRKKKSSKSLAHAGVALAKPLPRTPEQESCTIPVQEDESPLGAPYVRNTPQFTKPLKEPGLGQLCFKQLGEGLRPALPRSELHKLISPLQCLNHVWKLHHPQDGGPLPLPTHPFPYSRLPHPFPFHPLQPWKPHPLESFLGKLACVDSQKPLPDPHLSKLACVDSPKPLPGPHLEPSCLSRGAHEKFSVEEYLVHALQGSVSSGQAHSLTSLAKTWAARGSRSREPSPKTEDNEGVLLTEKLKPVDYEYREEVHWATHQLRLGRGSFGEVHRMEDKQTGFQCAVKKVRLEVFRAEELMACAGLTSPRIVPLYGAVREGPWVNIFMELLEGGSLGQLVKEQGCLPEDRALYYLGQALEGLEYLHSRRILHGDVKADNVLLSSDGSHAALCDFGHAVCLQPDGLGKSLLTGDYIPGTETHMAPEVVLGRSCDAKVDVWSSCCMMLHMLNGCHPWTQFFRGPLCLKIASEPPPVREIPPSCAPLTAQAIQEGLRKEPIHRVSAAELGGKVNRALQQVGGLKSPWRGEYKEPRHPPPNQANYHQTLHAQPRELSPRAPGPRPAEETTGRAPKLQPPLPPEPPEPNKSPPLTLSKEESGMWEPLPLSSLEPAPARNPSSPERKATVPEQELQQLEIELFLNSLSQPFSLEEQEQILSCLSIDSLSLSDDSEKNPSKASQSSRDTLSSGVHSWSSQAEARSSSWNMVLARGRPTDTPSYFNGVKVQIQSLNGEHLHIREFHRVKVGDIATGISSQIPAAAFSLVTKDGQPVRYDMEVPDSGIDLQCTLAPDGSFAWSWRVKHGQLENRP

[20] = biological target: Tyrosine-protein kinase Srms (Homo sapiens) (UniProt Q9H3Y6); assay: Inhibition of recombinant human full length GST-tagged SRMS expressed in baculovirus expression system at 0.1 uM by TR-FRET assay relative to control
[21] = Cmax in Sprague-Dawley rat at 5 mg/kg, po administered as single dose by LC-MS/MS analysis; assay type: ADME, organism-based; design: dose 5 mg/kg, route oral; settings: in vivo
U-87 MG [22] = assay: Antitumor activity against luciferase-fused human U87MG cells orthotopically xenografted in nude mouse assessed as tumor growth inhibition at 12.5 mg/kg, po qd for 4 weeks by bioluminescence imaging relative to control; assay type: functional, U-87MG ATCC; settings: 672 h, read-out: TGI
[23] = Tmax in CD-1 mouse brain at 10 mg/kg, po administered as single dose by LC-MS/MS analysis; assay type: ADME, organism-based
[24] = biological target: Mitogen-activated protein kinase 8 (Homo sapiens) (UniProt P45983); assay: Inhibition of recombinant human full length His-tagged JNK1 expressed in baculovirus expression system at 0.1 uM by Z'-Lyte assay relative to control
[25] = biological target: Fibroblast growth factor receptor 1 (Homo sapiens) (UniProt P11362); assay: Inhibition of recombinant human His-tagged FGFR1 cytoplasmic domain expressed in baculovirus expression system at 1 uM by Z'-Lyte assay relative to control
[26] = biological target: CDK6/cyclin D3 (Homo sapiens) (UniProt P30281+Q00534); assay: Inhibition of recombinant full length human GST-tagged […] expressed in baculovirus expression system at 0.1 uM by TR-FRET assay relative to control
[27] = AUC (0 to 48 hrs) in CD-1 mouse brain at 10 mg/kg, po administered as single dose by LC-MS/MS analysis; assay type: ADME, organism-based; design: dose 10 mg/kg, time < 48 hr, route oral; settings: in vivo
[28] = biological target: Casein kinase I isoform alpha (Homo sapiens) (UniProt P48729); assay: Inhibition of recombinant full length human GST-tagged CK1alpha expressed in baculovirus expression system at 1 uM by Z'-Lyte assay relative to control
Casein kinase I isoform alpha (Homo sapiens), sequence (P48729 2-337 limits assumed): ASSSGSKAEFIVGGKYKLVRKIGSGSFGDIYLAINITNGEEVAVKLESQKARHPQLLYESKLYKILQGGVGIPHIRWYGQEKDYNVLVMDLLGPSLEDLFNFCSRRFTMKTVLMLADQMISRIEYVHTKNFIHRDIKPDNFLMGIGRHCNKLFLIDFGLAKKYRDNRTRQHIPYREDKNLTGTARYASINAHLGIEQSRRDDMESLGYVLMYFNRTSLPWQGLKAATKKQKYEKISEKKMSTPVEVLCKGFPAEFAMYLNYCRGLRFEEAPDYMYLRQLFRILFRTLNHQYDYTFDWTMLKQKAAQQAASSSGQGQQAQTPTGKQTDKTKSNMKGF

[29] = biological target: Phosphatidylinositol 4,5-bisphosphate 3-kinase catalytic subunit beta isoform (Homo sapiens) (UniProt P42338); assay: Inhibition of PI3K beta (unknown origin) at 0.1 uM by ADP-Glo assay relative to control
[30] = biological target: Cyclin-dependent kinase 4/cyclin D1 (Homo sapiens) (UniProt P11802+P24385); assay: Inhibition of recombinant full length human GST-tagged CDK4/Cyclin-D1 expressed in baculovirus expression system at 1 uM by TR-FRET assay relative to control
U-87 MG [31] = assay: Antitumor activity against luciferase-fused human U87MG cells orthotopically xenografted in nude mouse assessed as tumor growth inhibition at 6.25 mg/kg, po qd for 4 weeks by bioluminescence imaging relative to control; assay type: functional, U-87MG ATCC; settings: 672 h, read-out: TGI

RAC-beta serine/threonine-protein kinase (Homo sapiens), sequence (P31751 whole entry, the tested form may be a part): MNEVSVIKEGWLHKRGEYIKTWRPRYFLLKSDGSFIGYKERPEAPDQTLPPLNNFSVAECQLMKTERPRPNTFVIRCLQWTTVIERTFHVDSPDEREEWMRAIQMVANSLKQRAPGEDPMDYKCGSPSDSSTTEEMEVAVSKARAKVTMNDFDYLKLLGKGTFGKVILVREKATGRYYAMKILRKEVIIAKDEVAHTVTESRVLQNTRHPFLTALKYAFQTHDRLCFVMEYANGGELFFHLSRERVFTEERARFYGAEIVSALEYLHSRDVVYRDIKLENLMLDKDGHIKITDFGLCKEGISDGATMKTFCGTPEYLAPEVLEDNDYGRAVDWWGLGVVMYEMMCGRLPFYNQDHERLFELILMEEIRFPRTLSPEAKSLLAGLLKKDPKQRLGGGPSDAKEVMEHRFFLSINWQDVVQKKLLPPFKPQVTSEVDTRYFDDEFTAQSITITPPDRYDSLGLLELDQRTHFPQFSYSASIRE

Structure (SMILES): CC1=Nc2c(F)cc(-c3nc(Nc4ccc(C5CCN(C)CC5)cn4)ncc3F)cc2C12CCCC2 [CROZBACICLIB]
- inhibition [1]: 1%
- inhibition [2]: -8%
- AUC(0-inf) [3]: 959 ng·h/mL
- inhibition [4]: 19%
- AUC(0-t) at 24 h [5]: 886 ng·h/mL
- inhibition [6]: 17%
- inhibition [7]: 59%
- inhibition [8]: 82%
- inhibition [9]: 4%
- inhibition [10]: 1%
- inhibition [11]: 12%
- inhibition [12]: 12%
- inhibition [13]: 11%
- inhibition [14]: 16%
- half-life [15]: 7.1 h
- inhibition [16]: -4%
- inhibition [17]: 0%
- fCmax [18]: 5.73 ng/mL
- inhibition [19]: 105%
- inhibition [20]: 20%
- Cmax [21]: 134 ng/mL
- inhibition in vivo at 12.5 mg/kg (U-87 MG [22]): 92%
- Tmax [23]: 2 h
- inhibition [24]: 6%
- inhibition [25]: 13%
- inhibition [26]: 100%
- AUC [27]: 37178 ng·h/g
- inhibition [28]: 5%
- inhibition [29]: 0%
- inhibition [30]: 107%
- inhibition in vivo at 6.25 mg/kg (U-87 MG [31]): 79%
